Laboratory results: BigSolDB 2.1

CC(=O)Oc1ccccc1C(=O)O
Details	solubility (mole fraction)
in MIBK, 277.46 K	0.0196
in MIBK, 281.76 K	0.023
in MIBK, 287.96 K	0.0283
in MIBK, 292.96 K	0.0331
in MIBK, 300.18 K	0.0414
in MIBK, 307.27 K	0.0511
in MIBK, 312.47 K	0.0594
in MIBK, 318.36 K	0.07
in MIBK, 327.95 K	0.0897
in ethyl acetate, 275.86 K	0.0154
in ethyl acetate, 283.66 K	0.0204
in ethyl acetate, 289.86 K	0.0254
in ethyl acetate, 296.16 K	0.0313
in ethyl acetate, 302.67 K	0.0384
in ethyl acetate, 308.68 K	0.0467
in ethyl acetate, 315.16 K	0.0564
in ethyl acetate, 321.37 K	0.0676
in ethyl acetate, 327.91 K	0.0807
in isobutanol, 276.36 K	0.0098
in isobutanol, 284.46 K	0.0151
in isobutanol, 289.27 K	0.0194
in isobutanol, 294.3 K	0.0247
in isobutanol, 299.16 K	0.0309
in isobutanol, 303.65 K	0.0383
in isobutanol, 308.26 K	0.0469
in isobutanol, 312.61 K	0.0567
in isobutanol, 316.87 K	0.0679
in isobutanol, 320.96 K	0.0807
in isobutanol, 322.96 K	0.0875
in isobutanol, 326.57 K	0.1
in isobutyl acetate, 277.86 K	0.0109
in isobutyl acetate, 281.16 K	0.0124
in isobutyl acetate, 287.78 K	0.0157
in isobutyl acetate, 293.97 K	0.0198
in isobutyl acetate, 300.25 K	0.0247
in isobutyl acetate, 307.15 K	0.0306
in isobutyl acetate, 313.56 K	0.0376
in isobutyl acetate, 320.16 K	0.046
in isobutyl acetate, 327.15 K	0.0559
in n-butanol, 277.66 K	0.0145
in n-butanol, 282.35 K	0.0183
in n-butanol, 287.35 K	0.0232
in n-butanol, 292.35 K	0.0291
in n-butanol, 297.37 K	0.036
in n-butanol, 301.66 K	0.044
in n-butanol, 306.16 K	0.0531
in n-butanol, 310.35 K	0.0635
in n-butanol, 314.64 K	0.0752
in n-butanol, 318.75 K	0.0883
in n-butanol, 323.44 K	0.103
in n-propanol, 276.36 K	0.0164
in n-propanol, 282.96 K	0.0227
in n-propanol, 288.16 K	0.0286
in n-propanol, 293.16 K	0.0354
in n-propanol, 297.85 K	0.0434
in n-propanol, 302.55 K	0.0527
in n-propanol, 307.06 K	0.0632
in n-propanol, 311.66 K	0.0752
in n-propanol, 316.06 K	0.0887
in n-propanol, 320.45 K	0.104
in n-propanol, 324.75 K	0.121

O=C(O)c1ccccc1
Details	solubility (mole fraction)
in 2-butanone, 278.65 K	0.131
in 2-butanone, 284.29 K	0.148
in 2-butanone, 289.86 K	0.166
in 2-butanone, 295.54 K	0.186
in 2-butanone, 301.27 K	0.206
in 2-butanone, 307.1 K	0.229
in 2-butanone, 313.04 K	0.254
in 2-butanone, 319.06 K	0.281
in 2-butanone, 325.2 K	0.311
in MIBK, 276.45 K	0.11
in MIBK, 281.66 K	0.124
in MIBK, 287.16 K	0.139
in MIBK, 292.73 K	0.156
in MIBK, 298.25 K	0.175
in MIBK, 303.76 K	0.195
in MIBK, 309.36 K	0.217
in MIBK, 315.05 K	0.242
in MIBK, 320.74 K	0.264
in MIBK, 325.16 K	0.281
in ethyl acetate, 279.67 K	0.105
in ethyl acetate, 285.24 K	0.121
in ethyl acetate, 289.24 K	0.133
in ethyl acetate, 293.36 K	0.146
in ethyl acetate, 298.93 K	0.167
in ethyl acetate, 303.76 K	0.186
in ethyl acetate, 308.76 K	0.206
in ethyl acetate, 313.66 K	0.228
in ethyl acetate, 318.65 K	0.252
in ethyl acetate, 323.56 K	0.278
in ethyl acetate, 326.5 K	0.306
in isopropyl acetate, 276.27 K	0.0855
in isopropyl acetate, 283.74 K	0.105
in isopropyl acetate, 288.69 K	0.118
in isopropyl acetate, 293.67 K	0.134
in isopropyl acetate, 298.34 K	0.15
in isopropyl acetate, 303.36 K	0.168
in isopropyl acetate, 308.33 K	0.188
in isopropyl acetate, 313.25 K	0.209
in isopropyl acetate, 318.25 K	0.232
in isopropyl acetate, 324.02 K	0.26
in methanol, 278 K	0.111
in methanol, 285.5 K	0.129
in methanol, 292.23 K	0.145
in methanol, 298.99 K	0.164
in methanol, 304.78 K	0.18
in methanol, 312.56 K	0.204
in methanol, 319.32 K	0.227
in methanol, 323.49 K	0.241
in n-butanol, 276.92 K	0.116
in n-butanol, 281.92 K	0.13
in n-butanol, 291.77 K	0.16
in n-butanol, 296.56 K	0.176
in n-butanol, 301.56 K	0.194
in n-butanol, 311.66 K	0.234
in n-butanol, 316.79 K	0.256
in n-butanol, 321.9 K	0.279
in n-butanol, 327.3 K	0.306
in n-propanol, 279.06 K	0.119
in n-propanol, 284.15 K	0.133
in n-propanol, 289.26 K	0.148
in n-propanol, 294.47 K	0.164
in n-propanol, 299.65 K	0.182
in n-propanol, 304.75 K	0.2
in n-propanol, 310.06 K	0.221
in n-propanol, 315.41 K	0.242
in n-propanol, 320.77 K	0.266
in n-propanol, 326.16 K	0.291
